Eight compounds from patent USRE39530E1, “3-amino-3-arylpropan-1-ol-compounds, their preparation and use” (Gruenenthal GmbH, priority 1999, dated 2007) can be followed below.

The test system of assay [1] is phenylquinone-induced writhing. Nature of the assay: Phenylquinone-induced writhing test on mice. The format is in vivo. The conditions noted are these: male NMRI mice, 10 min before phenylquinone i.p., writhing counted 5 to 20 min after phenylquinone. The procedure: The analgesic activity was investigated on phenylquinone-induced writhing in mice (modified by I. C. Hendershot and J. Forsaith (1959) J. Pharmacol. Exp. Ther. 125, 237-240). Male NMRI mice weighing 25 to 30 g were used for this. Groups of 10 animals per dose of substance received 0.3 ml/mouse of a 0.02% aqueous solution of phenylquinone (phenylbenzoquinone), Sigma, Deisenhofen; preparation of the solution with addition of 5% ethanol and storage in a water bath at 45° C.) as an intraperitoneal administration 10 minutes after intravenous administration of the test substances. The animals were placed individually in observation cages. The number of pain-induced extension movements (so-called writhing reactions=straightening of the body with stretching out of the hind extremities) 5 to 20 minutes after the administration of phenylquinone was counted by means of a push-button counter. Animals which receive only physiological saline solution were also run as a control. All the substances were tested in the standard dosage of 10 mg/kg. The percentage inhibition (% inhibition) of the writhing reaction by a substance was calculated in accordance with the following equation: [formula] For some substances, the ED50 values with 95% confidence limits of the writhing reaction were calculated from the dose-dependent decrease in the writhing reactions compared with phenylquinone control groups investigated in parallel by means of regression analysis (evaluation program of Martens EDV Service, Eckental).

The test system of assay [2] is bonding site 2 of the sodium channel (BTX bonding site). Nature of the assay: Bonding investigations on the sodium channel, bonding site 2 (BTX bonding). The following applies: rat cerebrocortex synaptosomes; for BTX bonding at 10 μM: percentage inhibition at 10 μM test substance, [3H]-batrachotoxin A20 α-benzoate 10 nM. The assay is classed as binding. The procedure: Bonding Site 2 (BTX bonding)
Bonding site 2 of the sodium channel is the so-called batrachotoxin (BTX) bonding site. [^3H]-Batrachotoxin A20 α-benzoate (10 nM in the batch) was employed as the ligand. These ion channel particles (synaptosomes) were concentrated out of the rat cerebrocortex by the method of Gray and Whittaker (E. G. Gray and V. P. Whittaker (1962) J. Anat. 76, 79-88). The radioactivity measured in the presence of veratridin (0.3 mM in the batch) is defined as non-specific bonding. Incubation at 37° C. for 120 min. The assay conditions were implemented in accordance with the publication of Pauwels, Leysen and Laduron (P. J. Pauwels, J. E. Leysen and P. M. Laduron (1986) Eur. J. Pharmacol. 124, 291-298).
(§1) In addition to the percentage inhibition of the test systems at fixed test substance concentrations (10 μM in the batch), dose-dependencies were investigated. In this investigation, IC50 values are obtained, and these can be converted by the “Cheng-Prusoff equation” (Y. C. Cheng and W. H. Prusoff (1973) Biochem. Pharmacol. 22, 3099-3108) into inhibitor constants (Ki). The IC50 values were obtained with the aid of the “Figure P” computer program (version 6.0, Biosoft, Cambridge, England). Km values were calculated by the method of Lineweaver and Burk (H. Lineweaver and D. Burk (1934) J. Am. Chem. Soc. 56, 658-666). The “Ligand” computer program (version 4, Biosoft, England) is used to obtain KD values.

The subject of assay [3] is benzothiazepine bonding site of the L-type calcium channel. Nature of the assay: Bonding investigations on the L calcium channel, benzothiazepine bonding site (diltiazem bonding). The assay is classed as binding. The conditions noted are these: rat cerebrocortex membranes; for Diltiazem bonding at 10 μM: percentage inhibition at 10 μM test substance, [3H]-cis-(+)-diltiazem 5 nM. On the procedure: Benzothiazepine Bonding Site (diltiazem bonding)
The biological membrane material was isolated from the cerebrocortex of the rat. [^3H]-cis-(+)-Diltiazem (5 nM in the batch) was used as the ligand. Incubation for 20 minutes at 25° C. The radioactivity measured in the presence of (+)-diltiazem (10^−6 M in the batch) is defined as non-specific bonding. At the end of the incubation, the non-bonded content of radioactive ligand is removed with the aid of a filtration process over Whatman glass fiber GF/B membranes. After a washing process, the membranes are then measured on a β-counter. The method has been established in accordance with the publication of Schoemaker and Langer (H. Schoemaker and S. Z. Langer (1985) Eur. J. Pharmacol. 111, 273-277).
as §1

In the case of `CN(C)C(c1ccccc1)C1CCCCC1OCc1cccc(F)c1.Cl` (stereo not shown) [Example 5, {[2-(3-Fluorobenzyloxy)cyclohexyl]-phenylmethyl}dimethylamine hydrochloride], the “% Inhibition of the writhing reaction at 10 mg/kg intravenously” value (“% Inhibition of the writhing reaction” below) in assay [1] came to 74%. For the same compound, the “BTX bonding at 10 μM” value in assay [2] is on record as 98%. Further, the “Diltiazem bonding at 10 μM” value in assay [3] was found to be 89%.

Consider `CN(C)C(c1ccccc1Cl)C1CCCCC1OCc1ccccc1Cl.Cl` (stereo not shown) [Example 4, {[2-(2-Chlorobenzyloxy)cyclohexyl]-(2-chlorophenyl)methyl}-dimethylamine hydrochloride], for which, in assay [1], the “% Inhibition of the writhing reaction” value stood at 32%. Moreover, in assay [2], the “BTX bonding at 10 μM” value came to 92%. Moreover, in assay [3], the “Diltiazem bonding at 10 μM” value amounted to 73%.

Take `CN(C)C(c1ccccc1)C1CCCCC1OCc1ccc(F)cc1.Cl` (stereo not shown) [Example 6, {[2-(4-Fluorobenzyloxy)cyclohexyl]-phenylmethyl}dimethylamine hydrochloride]: in assay [1], the “% Inhibition of the writhing reaction” value stood at 68%. For the same compound, in assay [2], the “BTX bonding at 10 μM” value turned out to be 97%. Also, the “Diltiazem bonding at 10 μM” value in assay [3] was 86%.

On to `Cc1ccccc1COC1CCCCC1C(c1ccccc1)N(C)C.Cl` (stereo not shown) [Example 1, Dimethyl-{[2-(2-methyl-benzyloxy)cyclohexyl]phenylmethyl}-amine hydrochloride], for which the “% Inhibition of the writhing reaction” value in assay [1] came to 85%. In addition, in assay [2], the “BTX bonding at 10 μM” value is listed as 99%. Also, the “Diltiazem bonding at 10 μM” value in assay [3] was found to be 82%.

Take `COc1ccc(C(=O)OC2CCCCC2C(c2ccccc2)N(C)C)cc1.Cl` (stereo not shown) [Example 3, [2-(Dimethylaminophenylmethyl)cyclohexyl]4-methoxybenzoate hydrochloride]: the “% Inhibition of the writhing reaction” value in assay [1] was found to be 43%. In assay [2], the “BTX bonding at 10 μM” value turned out to be 89%. For the same compound, the “Diltiazem bonding at 10 μM” value in assay [3] is on record as 65%.

With `CN(C)C(c1ccccc1)C1CCCCC1OC(=O)c1ccc(C(F)(F)F)cc1.Cl` (stereo not shown) [Example 2, [2-(Dimethylaminophenylmethyl)cyclohexyl]-4-trifluoromethylbenzoate hydrochloride], in assay [1], the “% Inhibition of the writhing reaction” value is on record as 48%. Also, the “BTX bonding at 10 μM” value in assay [2] is 98%.

For “[^3H]-Batrachotoxin A20 α-benzoate [reference compound]”, the Kd in assay [2] (radioligand, means±SEM, N=3, read-out: KD value for this bonding site) stood at 24.6 ± 1.56 nM.

“[^3H]-cis-(+)-Diltiazem [reference compound]”: in assay [3] (radioligand, means±SEM, N=3, read-out: KD value for this high-affinity bonding site), the Kd amounted to 4.1 ± 0.75 nM.

The term Kd denotes the constant that tells how readily two partners part at equilibrium.
